Experimental data published in patent US8901118B2, “Compounds and methods for kinase modulation, and indications therefor” (Plexxikon Inc., priority 2010, dated 2014).

What follows are compounds tested on SKNSH cells (assay: SKNSH (human neuroblastoma) cell proliferation assay (ATPlite)). Conditions: SK-N-SH, read-out: Inhibition of Cell Proliferation IC50, SKNSH.
Assay type: cell-based
Protocol: Compounds are assessed in a variety of cell based assays. For example BaF3 cells engineered with any of BCR-FMS, BCR-KIT, BCR-FLT3, BCR-NTRK1, BCR-NTRK2, and BCR-NTRK3, are used in cell proliferation assays to assess inhibitory activity of Fms, Kit, Flt-3, TrkA, TrkB, and TrkC, respectively. An MV-4-11 (leukemia) cell proliferation assay is used to assess inhibitory activity in Flt-3, and SKNSH (human neuroblastoma) cell proliferation assay is used to assess efficacy of Fms/Trk inhibitors. Additional cells may be assayed similarly to assess the efficacy of Fms/Trk inhibitors, such as MiaPaCa (human pancreatic cancer) and Capan-1 (human pancreatic carcinoma) cells. Reagent and assay conditions are as follows: • BaF3 cells: • Maintained in RPMI containing 10% FBS, 1% PenStrep, 1% NEAA, and 1% L-Glutamine, supplemented with 1 mg/mL G418 and 5% WEHI-CM (or recombinant murine IL-3). • Confluent cells are split 1:50 to 1:100 every 3-4 days. • MV-4-11 cells: • Maintained in Iscove's Modified Dulbecco's Medium containing 10% FBS. • Confluent cells are split 1:4 every 3-4 days. • SKNSH cells: RPMI containing 10% FBS. On day 1, cells are counted, then centrifuged in a conical tube for 5 minutes at 1000 rpm. The supernatant is removed and cells are re-suspended as follows: • BaF3: resuspend in growth media +1 mg/mL G418 (without WEHFIL-3) to 2×10^5 cells/mL. • MV-4-11: resuspend in growth media to 5×10^5 cells/mL. • SKNSH: resuspend in growth media to 2×10^4 cells/mL. The cells are plated (50 μL, 150 μL for SKNSH cells) in each well of a 96-well dish (Corning 3610) and incubated at 37° C. in 5% CO2 overnight, cells plated to a final concentration of cells as follows: • BaF3: 10,000 cells per well. • MV-4-11: 25,000 cells per well. • SKNSH: 3,000 cells per well. On day 2, compound at a maximum concentration of 5 mM is serially diluted 1:3 for a total of 8 point titration with DMSO as a control. A 1 μL aliquot of each dilution point is added to 249 μL growth media and 50 μL is added to a well containing cells, providing 10 μM compound for the maximum concentration point. The cells are incubated for 3 days at 37° C. in 5% CO2. For SKNSH cells, a 0.75 μL aliquot of appropriate dilution in DMSO is added to 150 μL of cells. On day 5, ATPlite 1 step Luminescence Assay System (Perkin Elmer #6016739) is brought to room temperature along with the cell cultures. ATPlite is added to each well as follows: • BaF3: 25 μL per well. • MV-4-11: 40 μL per well. • SKNSH: 20 μL per well. The cells are incubated at room temperature for 10 minutes, then luminescence is read on Safire reader. The measured luminescence correlates directly with cell number, such that the reading as a function of compound concentration is used to determine the IC50 value.
It is understood that the results of these assays may vary as assay conditions are varied. Inhibition levels determined under the conditions described herein represent a relative activity for the compounds tested under the specific conditions employed. The cell based assays are likely to show variability due to the complexity of the system and the sensitivity thereof to any changes in the assay conditions. […] Results for compounds that are tested and show substantially no inhibition below the highest tested concentration are represented as “-” in the tables below. In some instances, the compounds were not tested in all of the assays, or assay results were not valid, as indicated by NA in the tables below.

IC50 | Structure (SMILES)
< 1 µM | COc1cncc(Nc2ccc(C(=O)c3c[nH]c4ncnc(NC(C)C)c34)c(F)n2)c1 [Compound P-4106, [2-fluoro-6-[(5-methoxy-3-pyridyl)amino]-3-pyridyl]-[4-(isopropylamino)-7H-pyrrolo[2,3-d]pyrimidin-5-yl]methanone]
< 1 µM | O=C(c1ccc(NC2CCC(F)(F)CC2)nc1F)c1c[nH]c2ncnc(NC3CC3)c12 [Compound P-4062, [4-(cyclopropylamino)-7H-pyrrolo[2,3-d]pyrimidin-5-yl]-[6-[(4,4-difluorocyclohexyl)amino]-2-fluoro-3-pyridyl]methanone]
< 10 µM | CCc1ccc(Nc2ccc(C(=O)c3c[nH]c4ncnc(N[C@@H](C)c5ccc(F)cc5)c34)c(F)n2)cn1 [Compound P-4097, [6-[(6-ethyl-3-pyridyl)amino]-2-fluoro-3-pyridyl]-[4-[[(1S)-1-(4-fluorophenyl)ethyl]amino]-7H-pyrrolo[2,3-d]pyrimidin-5-yl]methanone]
< 1 µM | O=C(c1ccc(Nc2ccc(C3CC3)nc2)nc1F)c1c[nH]c2ncnc(NCC(F)(F)F)c12 [Compound P-4090, [6-[(6-cyclopropyl-3-pyridyl)amino]-2-fluoro-3-pyridyl]-[4-(2,2,2-trifluoroethylamino)-7H-pyrrolo[2,3-d]pyrimidin-5-yl]methanone]
< 0.1 µM | COc1ccc(Nc2ccc(C(=O)c3c[nH]c4ncnc(NC5CC5)c34)c(F)n2)cn1 [Compound P-4126, [4-(cyclopropylamino)-7H-pyrrolo[2,3-d]pyrimidin-5-yl]-[2-fluoro-6-[(6-methoxy-3-pyridyl)amino]-3-pyridyl]methanone]
< 1 µM | O=C(c1ccc(NC2CCC(F)(F)CC2)nc1Cl)c1c[nH]c2ncnc(NC3CC3)c12 [Compound P-4059, [2-chloro-6-[(4,4-difluorocyclohexyl)amino]-3-pyridyl]-[4-(cyclopropylamino)-7H-pyrrolo[2,3-d]pyrimidin-5-yl]methanone]

The remaining lines, values behind:

Structure (SMILES) | IC50
CCc1ccc(Nc2ccc(C(=O)c3c[nH]c4ncnc(NCCCOC)c34)c(F)n2)cn1 [Compound P-4098, [6-[(6-ethyl-3-pyridyl)amino]-2-fluoro-3-pyridyl]-[4-(3-methoxypropylamino)-7H-pyrrolo[2,3-d]pyrimidin-5-yl]methanone] | < 10 µM
CCc1ccc(Nc2ccc(C(=O)c3c[nH]c4ncnc(NCC(F)(F)F)c34)c(F)n2)cn1 [Compound P-4120, [6-[(6-ethyl-3-pyridyl)amino]-2-fluoro-3-pyridyl]-[4-(2,2,2-trifluoroethylamino)-7H-pyrrolo[2,3-d]pyrimidin-5-yl]methanone] | < 1 µM
O=C(c1ccc(NC2CCC(F)(F)CC2)nc1Cl)c1c[nH]c2ncnc(NCC(F)(F)F)c12 [Compound P-4057, [2-chloro-6-[(4,4-difluorocyclohexyl)amino]-3-pyridyl]-[4-(2,2,2-trifluoroethylamino)-7H-pyrrolo[2,3-d]pyrimidin-5-yl]methanone] | < 10 µM
CNc1ncnc2[nH]cc(C(=O)c3ccc(NC4CCCCC4)nc3Cl)c12 [Compound P-4110, [2-chloro-6-(cyclohexylamino)-3-pyridyl]-[4-(methylamino)-7H-pyrrolo[2,3-d]pyrimidin-5-yl]methanone] | < 10 µM
CCc1ccc(Nc2ccc(C(=O)c3c[nH]c4ncnc(NC)c34)c(F)n2)cn1 [Compound P-4124, [6-[(6-ethyl-3-pyridyl)amino]-2-fluoro-3-pyridyl]-[4-(methylamino)-7H-pyrrolo[2,3-d]pyrimidin-5-yl]methanone] | < 1 µM
CCNc1ncnc2[nH]cc(C(=O)c3ccc(Nc4ccc(CC)nc4)nc3F)c12 [Compound P-4123, [4-(ethylamino)-7H-pyrrolo[2,3-d]pyrimidin-5-yl]-[6-[(6-ethyl-3-pyridyl)amino]-2-fluoro-3-pyridyl]methanone] | < 0.1 µM
